Measurements as given in patent US20240252650A1, “LIPID COMPOUNDS AND LIPID NANOPARTICLE COMPOSITIONS” (SUZHOU ABOGEN BIOSCIENCES CO., LTD., priority 2021, published 2024).

What was measured:
[1] = Lipid nanoparticle size and polydispersity by dynamic light scattering (Malvern Zetasizer Nano ZS); assay type: physicochemical; conditions: LNP: cationic lipid/DSPC/cholesterol/PEG-lipid 50:10:38.5:1.5, mRNA; table of Example 15
Procedure: (§1) Briefly, a cationic lipid provided herein, DSPC, cholesterol, and PEG-lipid were solubilized in ethanol at a molar ratio of 50:10:38.5:1.5, and mRNA were diluted in 10 to 50 mM citrate buffer, pH=4. The LNPs were prepared at a total lipid to mRNA weight ratio of approximately 10:1 to 30:1 by mixing the ethanolic lipid solution with the aqueous mRNA solution at a volume ratio of 1:3 using a microfluidic apparatus, total flow rate ranging from 9-30 mL/min. Ethanol were thereby removed and replaced by DPBS using dialysis. Finally, the lipid nanoparticles were filtered through a 0.2 μm sterile filter.
(§2) Lipid nanoparticle size were determined by dynamic light scattering using a Malvern Zetasizer Nano ZS (Malvern UK) using a 173° backscatter detection mode. The encapsulation efficiency of lipid nanoparticles were determined using a Quant-it Ribogreen RNA quantification assay kit (Thermo Fisher Scientific, UK) according to the manufacturer's instructions.

[2] = Encapsulation efficiency of lipid nanoparticles (Quant-it Ribogreen RNA quantification assay); assay type: physicochemical; conditions: LNP: cationic lipid/DSPC/cholesterol/PEG-lipid 50:10:38.5:1.5, mRNA; table of Example 15
Procedure: as §1, §2

[3] = Apparent pKa of LNP formulations by TNS fluorescence assay; assay type: physicochemical; conditions: LNP cationic lipid/DSPC/cholesterol/DMG-PEG 50/10/38.5/1.5 mol %, table of Example 15
Procedure: As reported in literature, the apparent pKa of LNP formulations correlates with the delivery efficiency of LNPs for nucleic acids in vivo. The apparent pKa of each formulation was determined using an assay based on fluorescence of 2-(p-toluidino)-6-napthalene sulfonic acid (TNS). LNP formulations comprising of cationic lipid/DSPC/cholesterol/DMG-PEG (50/10/38.5/1.5 mol %) in PBS were prepared as described above. TNS was prepared as a 300 uM stock solution in distilled water. LNP formulations were diluted to 0.1 mg/ml total lipid in 3 mL of buffered solutions containing 50 mM sodium citrate, 50 mM sodium phosphate, 50 mM sodium borate, and 30 mM sodium chloride where the pH ranged from 3 to 9. An aliquot of the TNS solution was added to give a final concentration of 0.1 mg/ml and following vortex mixing fluorescence intensity was measured at room temperature in a Molecular Devices Spectramax iD3 spectrometer using excitation and mission wavelengths of 325 nm and 435 nm. A sigmoidal best fit analysis was applied to the fluorescence data and the pKa value was measured as the pH giving rise to half-maximal fluorescent intensity.

[4] = test system: female Balb/c mice; test: Animal study: LNPs encapsulating luciferase mRNA, tail vein injection, organ bioluminescence imaging (IVIS Spectrum CT); assay type: in vivo; conditions: luciferase mRNA LNP, 0.25 mg/kg tail vein; for luciferase expression in bone marrow (in words): 6 h; for bone marrow* Avg Radiance: bone marrow at 6 h; for brain* Avg Radiance: dissected brain at 6 h; for heart* Avg Radiance: dissected heart at 6 h; for kidney* Avg Radiance: dissected kidney at 6 h; for liver* Avg Radiance: dissected liver at 6 h; for lung* Avg Radiance: dissected lung at 6 h; for spleen* Avg Radiance: dissected spleen at 6 h
Procedure: Lipid nanoparticles comprising certain compounds provided herein encapsulating luciferase encoding (luciferase) mRNA were systemically administered to 6-8 week old female Balb/c mice (Charles River Lab, ZheJiang) at 0.25 mg/kg dose by tail vein injection, and mice blood were sampled at specific time points (e.g., 6 hours) post administration. Optical imaging was performed using the IVIS Spectrum CT device (PerkinElmer Inc., Paris, France). The luminescence level was evaluated by an ROI applied to the injection site zone (Living Image software, PerkinElmer Inc., Paris, France).
Radiance of heart, liver, spleen, lung, kidney, brain and bone marrow were taken at 6 h. Dissected organs were placed on a black sheet and imaged with IVIS Spectrum CT (PerkinElmer, Hopkinton, MA). To quantify bioluminescence emission signal, identical regions of interest (ROI) were positioned to encircle each organ region, the imaging signal was quantitated as average radiance (photons/s/cm2/steradian).

| polydispersity [1] | size (nm) [1] | Encapsulation Efficiency [2] | Apparant Pka [3] | SMILES | luciferase expression in bone marrow (in words) [4] | bone marrow* Avg Radiance [4] | brain* Avg Radiance [4] | heart* Avg Radiance [4] | kidney* Avg Radiance [4] | liver* Avg Radiance [4] | lung* Avg Radiance [4] | spleen* Avg Radiance [4] |
| --- | --- | --- | --- | --- | --- | --- | --- | --- | --- | --- | --- | --- |
| 0.037 | 87.99 nm | 85.39% | 6.398 | CCCCC/C=C\C/C=C\CCCCCCCC(=O)OCC(COC(=O)CCCC(COC(=O)CCCCCCC)COC(=O)CCCCCCC)COC(=O)OCCCN(CCOCCO)C1CCC1 (stereo not drawn) [Compound 127] | mild expression | 0.95 E+04 p/s/cm^2/sr | 3.91 E+04 p/s/cm^2/sr | 4.33 E+04 p/s/cm^2/sr | 10.77 E+04 p/s/cm^2/sr | 13.01 E+06 p/s/cm^2/sr | 9.38 E+04 p/s/cm^2/sr | 4.76 E+06 p/s/cm^2/sr |
| 0.033 | 138.5 nm | 87.05% | 6.477 | CCCCC/C=C\C/C=C\CCCCCCCC(=O)OCC(COC(=O)CCCCN(CCCCCCCO)C1CCC1)COC(=O)CCCC(COC(=O)CCCCCCC)COC(=O)CCCCCCC (stereo not drawn) [Compound 129] | mild expression | 2.12 E+04 p/s/cm^2/sr | 12.49 E+04 p/s/cm^2/sr | 13.05 E+04 p/s/cm^2/sr | 17.53 E+04 p/s/cm^2/sr | 30.05 E+06 p/s/cm^2/sr | 11 E+04 p/s/cm^2/sr | 6.57 E+06 p/s/cm^2/sr |
